Reference: patent US8466311B2, “Neuroprotective compositions and methods” (Sanford-Burnham Medical Research Institute, priority 2006, dated 2013)

Experiments:
Keap1 = molecular target: T1, Keap1 (Mus musculus, UniProt Q9Z2X8); experiment: Binding of CAB/CA to Keap1 and Keap1 deletion mutants (streptavidin precipitation); details: PC12h cells transfected with Keap1 (non-HA-tagged)
T1 construct: expressed in transfected cells; host or cells: COS7 cells
Procedure: (3) Expression vectors for HA-tagged Keap1 and Keap1 deletion mutants. These constructs were obtained from Dr. Akira Kobayashi of Tohoku University (Hosoya et al., J. Biol. Chem. 29:27244-27250, 2006; Kobayashi et al., Mol. Cell. Biol. 26:221-229, 2006).
Immunoprecipitation with agarose-immobilized streptavidin or antibody. PC12h cells (CAB- or vehicle-treated) were lysed in RIPA buffer supplemented with protease inhibitor cocktail. The lysates were centrifuged at 15,000 rpm for 10 min at 4° C., after which the supernatants were incubated with agarose-immobilized streptavidin at 4° C. for 1 h. Alternatively, for immunoprecipitation with anti-Keap1, the cell lysates were incubated with the antibody at 4° C. overnight, after which protein A immobilized on Sepharose CL-4B was added and incubation continued at 4° C. for 1 h. Then, the complexes were washed three times with rinse buffer (150 mM NaCl, 50 mM Tris-HCl [pH 7.5], 0.1% NP-40, 1 mM EDTA, and 0.02% NaN3). SDS sample buffer was added, the mixture was boiled for 5 min, and the supernatants were subjected to SDS-PAGE. Immunoblotting was then performed as described above.
CA activates the Keap1/Nrf2/ARE pathway. […] The initial reaction in this activation cascade is the binding of an electrophilic compound to specific cysteines on Keap1 protein (Hong et al., Chem. Res. Toxicol. 18: 1917-1926, 2005; Eggler et al., Proc. Nat. Acad. Sci. USA 102:10070-10075, 2005; Zhang et al., Mol. Cell. Biol. 10941-10953, 2004). Such binding initiates a cellular transcription pathway leading to induction of phase 2 enzymes (Talalay, Biofactors 12:5-11, 2000; Padmanabham et al., Mol. Cell 21:689-700, 2006; Itoh et al., Free Radic. Biol. Med. 36:1208-1213, 2004). Therefore, we examined the domains of Keap1 (designated BTB, IVR, and DGR) to determine those essential for binding to CA. Accordingly, for co-immunoprecipitation experiments, we transfected COS7 cells with DNA expressing either HA-tagged wild type Keap1 protein (HA-WT Keap1) or various deletion mutants of tagged Keap1 protein (HA-ΔBTB Keap1, HA-ΔIVR Keap1, and HA-ΔDGR Keap1). The transfected COS7 cells were then treated with vehicle or 10 μM CAB and lysed. We quantified the expression level of Keap1 protein in total cell lysates with anti-HA antibody. Each Keap1 mutant protein was expressed at a similar level of the predicted molecular weight (57 kDa for HA-ΔBTB Keap1, 53 kDa for HA-ΔIVR Keap1, and 37 kDa for HA-ΔDGR Keap1). Next, in order to detect Keap1/CAB complexes, we immunoprecipitated cell lysates with streptavidin and probed with anti-HA antibody. […] The requirement of the BTB domain for CA binding is in accord with prior results (Hong et al., Chem. Res. Toxicol. 18:1917-1926, 2005; Eggler et al., Proc. Nat. Acad. Sci. USA 102:10070-10075, 2005; Zhang et al., Mol. Cell. Biol. 24:10941-10953, 2004).
After binding of the electrophilic quinone-form of CA to Keap1 protein, activation of the Keap1/Nrf2 pathway requires nuclear translocation of Nrf2 (Talalay, Biofactors 12:5-11, 2000; Padmanabham et al., Mol. Cell 21:689-700, 2006; Itoh et al., Free Radic. Biol. Med. 36:1208-1213, 2004). Thus, we next examined the intracellular distribution of Nrf2 protein in COS7 cells by immunofluorescence.

neural cells = experiment: Neuroprotection and toxicity of CA in vitro (summary statements); type: cell-based
[1] = system: immature cortical neurons; experiment: Oxidative stress (glutamate or rotenone) in immature cortical cultures; type: cell-based, rat; details: CA 3 μM
Description: Primary cortical cultures and assays for two types of glutamate toxicity. Cerebrocortical neurons have been used as an in vitro system in order to investigate the cellular mechanism of neuronal death caused by glutamate. The level of expression of functional NMDA receptors is key for determining whether excitotoxicity or oxidative glutamate toxicity predominates. With increasing days in vitro (DIV), the expression level of these receptors in cortical cultures increases. […] In light of this background information, in the present study, we prepared cerebrocortical cultures from embryonic day 17 (E17) Sprague-Dawley rats and examined them at DIV2 as an experimental system for oxidative glutamate toxicity (Murphy et al., FASEB J. 4:1624-1633, 1990; Lee et al., J. Biol. Chem. 278:37948-37956, 2003). Rotenone, a complex I inhibitor of the mitochondrial electron-transport chain, also induces oxidative stress in immature cortical cultures (Murphy et al., FASEB J. 4:1624-1633, 1990; Lee et al., J. Biol. Chem. 278:37948-37956, 2003).
CA protects cortical neurons via activation of the Keap1/Nrf2 pathway. […] Glutamate (2 mM) and rotenone (300 nM) decreased the number of MAP2 and NeuN-positive cells to 30.8±2.5% and 25.8±1.9% of the control value, respectively. In contrast, CA (3 μM) increased cell survival in the face of these insults to 73.8±3.7% and 80.4±3.4%, respectively.

HO-1 protein = experiment: Induction of HO-1 protein in HT22 cells (Western blot); type: cell-based; details: 24 h, at NEPP concentration that prevented neuronal cell death
Procedure: HT22 cells (Satoh et al., Eur. J. Neurosci. 17:2249-2255, 2003; Satoh et al., J. Neurochem. 77:50-62, 2001; Sagara et al., J. Biol. Chem. 277:36204-36215, 2002) and primary cortical neurons (Bonfoco et al., Proc. Natl. Acad. Sci. USA 92:7162-7166, 1995) were cultured as described.
These assays were performed as described (Gu et al., Science 297:1186-1190, 2002) by using the following antibodies: anti-HO-1 (SPA895, 1:1000, Santa Cruz Biotechnology), anti-Keap1 (1:100, Santa Cruz Biotechnology), or anti-actin (1:5,000, Oncogene Research Products, San Diego).
Thereafter, cell lysates (10 μg per lane) were subjected to SDS-PAGE and probed with anti-HO-1 or anti-β-actin.

HO-1 promoter = HO-1 promoter luciferase reporter in cortical cultures; type: cell-based, rat
Procedure: Next, transcriptional activation of the HO-1 promoter by NEPP was examined by reporter gene assays in primary neurons. Cortical cultures were transfected with reporter cDNAs (1 μg per well), and 0.7 μM NEPP11 was added to the cultures. After a 24 h incubation, cell lysates were subjected to luciferase reporter assays. […] If the Keap1/Nrf2 pathway, indeed, mediates activation of the HO-1 promoter by NEPP11, mutant Nrf2 protein should inhibit this activation. […] Moreover, the selective activation in neurons may explain the relatively small amplitude of total HO-1 activation seen in the mixed neuronal/glial culture system in which glia predominate.

caspase-3 = experiment: NMDA-induced caspase-3 activation; type: cell-based, rat; details: NEPP11 1 μM
Description: Indeed, we found this to be the case.

T1 sequence (Q9Z2X8 whole entry): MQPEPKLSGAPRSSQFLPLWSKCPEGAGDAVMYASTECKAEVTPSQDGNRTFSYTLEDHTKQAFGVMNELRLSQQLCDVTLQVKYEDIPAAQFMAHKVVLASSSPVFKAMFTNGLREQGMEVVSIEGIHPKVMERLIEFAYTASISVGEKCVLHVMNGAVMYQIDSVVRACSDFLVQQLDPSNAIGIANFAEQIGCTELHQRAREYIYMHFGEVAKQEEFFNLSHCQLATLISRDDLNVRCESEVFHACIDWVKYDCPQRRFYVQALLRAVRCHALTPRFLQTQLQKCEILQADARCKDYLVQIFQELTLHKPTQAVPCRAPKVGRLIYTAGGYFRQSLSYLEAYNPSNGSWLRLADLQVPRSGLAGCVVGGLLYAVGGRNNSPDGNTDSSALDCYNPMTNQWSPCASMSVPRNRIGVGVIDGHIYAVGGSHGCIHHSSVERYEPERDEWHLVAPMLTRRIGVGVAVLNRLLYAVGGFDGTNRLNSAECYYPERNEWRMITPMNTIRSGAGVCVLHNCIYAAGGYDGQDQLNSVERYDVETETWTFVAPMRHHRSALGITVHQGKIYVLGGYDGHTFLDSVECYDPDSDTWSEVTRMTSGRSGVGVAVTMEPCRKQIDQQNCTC

CC(C)c1cc2c(c(O)c1O)[C@@]1(C(=O)O)CCCC(C)(C)[C@@H]1CC2 [CA, carnosic acid]
complex formation with Keap1 (Keap1): formed CA/Keap1 complexes | toxicity in vitro relative to NEPP11 (neural cells): less toxic than NEPP11 | toxicity to neural cells (neural cells; 100 μM CA): not toxic | neuroprotective concentration (neural cells; as little as): 1-3 | cell survival (MAP2 and NeuN-positive cells), % of the control value ([1]; glutamate 2 mM, glutamate alone 30.8±2.5%): 73.8±3.7% | cell survival (MAP2 and NeuN-positive cells), % of the control value ([1]; rotenone 300 nM, rotenone alone 25.8±1.9%): 80.4±3.4%

COC(=O)CCCCC/C=C1/C(=O)C=C[C@H]1CCCCCCc1ccc(C)cc1 [NEPP11]
HO-1 protein levels over baseline (HO-1 protein): approximately five-fold | activity of the HO-1 promoter (HO-1 promoter; NEPP11 0.7 μM, 24 h): significantly increased | HO-1 promoter activation with cotransfection of pNrf2(S40A)-GFP (HO-1 promoter; NEPP11, pNrf-GFP did not affect activation): almost completely knocked down | NMDA-induced caspase-3 activation (caspase-3): inhibited
